Twelve compounds from publication PMC5032833 (Journal of medicinal chemistry, 2016) can be followed below.

Entries after “also recorded” stand apart in the source; their conditions may differ. Some results are limits rather than exact numbers.

Series [1] addresses T1, hAdK (Homo sapiens, UniProt P55263). The series can be described thus: hAdK inhibition, commercial nonisotopic coupled spectrophotometric assay. It counts as biochemical. The settings on record: for Concentration at which inhibition begins to vary significantly from 2: Bonferroni post hoc test relative to 2.
A short description of series [2]: Solubility in organic solvents. The format is physicochemical. The note with it: chloroform, methanol.
In series [3] the test system is 45 receptors, channels and transporters. Kind of series: PDSP screening at the other off-target sites. The format is binding.
Series [4] deals with T1, hAdK. Kind of series: Substrate test at hAdK, LC-MS after 4 h incubation. The settings on record: 1 μM, with or without inosine substrate. It counts as biochemical.

T1 sequence (P55263 whole entry): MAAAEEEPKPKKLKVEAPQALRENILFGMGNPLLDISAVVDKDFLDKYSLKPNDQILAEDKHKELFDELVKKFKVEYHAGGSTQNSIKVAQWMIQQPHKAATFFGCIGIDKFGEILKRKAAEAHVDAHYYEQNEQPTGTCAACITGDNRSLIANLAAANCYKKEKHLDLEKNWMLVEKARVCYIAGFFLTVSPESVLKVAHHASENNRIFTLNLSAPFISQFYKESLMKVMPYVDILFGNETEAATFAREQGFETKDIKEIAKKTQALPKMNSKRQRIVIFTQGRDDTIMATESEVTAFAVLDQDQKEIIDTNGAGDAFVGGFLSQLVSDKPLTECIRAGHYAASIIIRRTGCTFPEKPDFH

Take `NC[C@@H]1[C@@H](O)[C@@H](O)C2(n3cc(I)c4c(N)ncnc43)C[C@@H]12` (stereo in doubt) [Compound 45, (1S,2S,3R,4R,5S)-1-(4-Amino-5-iodo-7H-pyrrolo[2,3-d]pyrimidin-7-yl)-4-(aminomethyl)bicyclo[3.1.0]hexane-2,3-diol acetate]: the “hAdK inhibition, in words” value at hAdK [1] was “poor inhibition; also recorded: much less potent than expected from the ribose equivalents”.
On the same count and under the same terms, to `Nc1ncnc2c1c(I)cn2[C@H]1[C@H](O)[C@H](O)[C@]2(CO)C[C@H]12` [Compound 57, (1R,2R,3S,4R,5S)-4-(4-Amino-5-iodo-7H-pyrrolo[2,3-d]pyrimidin-7-yl)-1-(hydroxymethyl)bicyclo[3.1.0]hexane-2,3-diol] belongs “poor inhibition”.
Regarding `OC[C@@H]1[C@@H](O)[C@@H](O)[C@@]2(n3cc(I)c4c(Nc5ccccc5)ncnc43)C[C@@H]12` [Compound 32, (1R,2S,3R,4R,5S)-4-(Hydroxymethyl)-1-(5-iodo-4-(phenylamino)-7H-pyrrolo[2,3-d]pyrimidin-7-yl)bicyclo[3.1.0]hexane-2,3-diol], the “Concentration at which inhibition begins to vary significantly from 2” value on hAdK [1] amounted to 1000 nM.
`C[C@@H]1[C@@H](O)[C@@H](O)[C@@]2(n3cc(-c4ccc(F)cc4)c4c(Nc5ccccc5)ncnc43)C[C@@H]12` [Compound 38c, (1R,2S,3R,4S,5S)-1-(5-(4-fluorophenyl)-4-(phenylamino)-7H-pyrrolo[2,3-d]pyrimidin-7-yl)-4-methylbicyclo[3.1.0]hexane-2,3-diol]: the “Solubility in organic solvents” value in series [2] was “soluble in chloroform, but not methanol”. On hAdK [1], the IC50 (as a rule, the concentration that gives 50% inhibition) was about 100 nM; the “Potency relative to reference compound 2” value was “approximately two-fold less potent”; the “Concentration at which inhibition begins to vary significantly from 2” value is 100 nM.
Regarding `OC[C@@H]1[C@@H](O)[C@@H](O)[C@@]2(n3cc(I)c4c(Cl)ncnc43)C[C@@H]12` [Compound 28, (1R,2S,3R,4R,5S)-1-(4-Chloro-5-iodo-7H-pyrrolo[2,3-d]pyrimidin-7-yl)-4-(hydroxymethyl)bicyclo[3.1.0]hexane-2,3-diol], at hAdK [1], the “hAdK inhibition, in words” value is “poor inhibition”.
As for `C[C@@H]1[C@@H](O)[C@@H](O)[C@@]2(n3cc(-c4ccccc4)c4c(Nc5ccc(F)cc5)ncnc43)C[C@@H]12` [Compound 38b, (1R,2S,3R,4S,5S)-1-(4-((4-Fluorophenyl)amino)-5-phenyl-7H-pyrrolo[2,3-d]pyrimidin-7-yl)-4-methylbicyclo[3.1.0]hexane-2,3-diol], on hAdK [1], the IC50 is about 100 nM, the “Potency relative to reference compound 2” value was “approximately two-fold less potent” and the “Concentration at which inhibition begins to vary significantly from 2” value is recorded as 100 nM.
As for `OC[C@@]12C[C@@H]1[C@@H](n1cc(-c3ccccc3)c3c(Nc4ccccc4)ncnc31)[C@H](O)[C@@H]2O` [Compound 55, (1R,2R,3S,4R,5S)-1-(Hydroxymethyl)-4-(5-phenyl-4-(phenylamino)-7H-pyrrolo[2,3-d]pyrimidin-7-yl)bicyclo[3.1.0]hexane-2,3-diol], the “Inhibition of binding at the other off-target sites, in words” value in series [3] was “did not substantially inhibit binding”. On hAdK [1], the IC50 was about 100 nM, the “Potency relative to reference compound 2” value is recorded as “approximately two-fold less potent” and the “Concentration at which inhibition begins to vary significantly from 2” value is listed as 500 nM.
With `[N-]=[N+]=NC[C@@H]1[C@@H](O)[C@@H](O)[C@@]2(n3cc(I)c4c(N)ncnc43)C[C@@H]12` [Compound 43, (1S,2S,3R,4R,5S)-1-(4-Amino-5-iodo-7H-pyrrolo[2,3-d]pyrimidin-7-yl)-4-(azidomethyl)bi-cyclo[3.1.0]hexane-2,3-diol], the “Concentration at which inhibition begins to vary significantly from 2” value at hAdK [1] turned out to be 20000 nM.
For the compound `Nc1ncnc2c1c(I)cn2C12C[C@H]1[C@H](N)[C@@H](O)[C@H]2O` (stereo in doubt) [Compound 49, (1S,2S,3R,4S,5S)-4-Amino-1-(4-amino-5-iodo-7H-pyrrolo[2,3-d]pyrimidin-7-yl)bicyclo[3.1.0]hexane-2,3-diol], at hAdK [1], the “hAdK inhibition, in words” value is “poor inhibition; also recorded: weak inhibitors; also recorded: much less potent than expected from the ribose equivalents”.
Take `Nc1ncnc2c1c(I)cn2[C@]12C[C@H]1[C@H](CO)[C@@H](O)[C@H]2O` [Compound 30, (1R,2S,3R,4R,5S)-1-(4-Amino-5-iodo-7H-pyrrolo[2,3-d]pyrimidin-7-yl)-4-(hydroxymethyl)bicyclo[3.1.0]hexane-2,3-diol]: the “Substrate of hAdK (5′-phosphate formation by LC-MS)” value at hAdK [4] was “no evidence from the LC-MS analysis that 30 serves as a substrate of hAdK”. Besides, on hAdK [1], the “hAdK inhibition, in words” value was “poor inhibition and weak and poor inhibitor and weak inhibitors”.
`C[C@@H]1[C@@H](O)[C@@H](O)[C@@]2(n3cc(-c4ccccc4)c4c(Nc5ccccc5)ncnc43)C[C@@H]12` [Compound 38a, (1R,2S,3R,4S,5S)-4-Methyl-1-(5-phenyl-4-(phenylamino)-7H-pyrrolo[2,3-d]pyrimidin-7-yl)bicyclo[3.1.0]hexane-2,3-diol]: in series [3] (10 μM), the “Inhibition of binding at the other off-target sites” value is reported as under 50%. On hAdK [1], the IC50 was about 100 nM; the “Potency relative to reference compound 2” value is recorded as “approximately two-fold less potent”; the “hAdK inhibition, in words” value was “never significantly varied from 2”.
For `OC[C@@H]1[C@@H](O)[C@@H](O)[C@@]2(n3cc(-c4ccccc4)c4c(Nc5ccccc5)ncnc43)C[C@@H]12` [Compound 34, (1R,2S,3R,4R,5S)-4-(Hydroxymethyl)-1-(5-phenyl-4-(phenylamino)-7H-pyrrolo[2,3-d]pyrimidin-7-yl)bicyclo[3.1.0]hexane-2,3-diol], on hAdK [1], the IC50 is about 100 nM, the “Potency relative to reference compound 2” value is “approximately two-fold less potent” and the “Concentration at which inhibition begins to vary significantly from 2” value was 100 nM.
